Assay results as given in patent US11713309B2, “Solid forms of Cerdulatinib” (Alexion Pharmaceuticals, Inc., priority 2018, dated 2023).
Values after ≈ are worked out from the molar mass of the structure shown. Where a name gives a salt, the structure may show the parent alone.

Legend:
Format in all cases: physicochemical
[1] = Thermodynamic aqueous solubility by HPLC; settings: HPLC grade water, 25° C., 24 hours, second scale up material
Procedure: The suspension was equilibrated at 25° C. for 24 hours. The suspension was then passed through a filter into an HPLC vial. The filtrate was then diluted by an appropriate factor. Quantification was executed by HPLC with reference to a standard solution of approximately 1 mg·mL^−1 in acetonitrile:water (1:1). Different volumes of the standard, diluted and undiluted sample solutions were injected. […] HPLC method parameters are described in Table 1 and Table 2.
Analysis was performed on an Agilent 1100 series liquid chromatography, equipped with a UV detector (DAD or VWD) @ 254 nm and using Chemstation Rev.B.01.03 software for data processing.
(§1) The solubility of the salts/co-crystals of Compound I prepared from the second scale up process was analyzed. The materials recovered after the solubility analysis were evaluated by XRPD to observe any form changes.

[2] = Gravimetric vapor sorption (GVS) hygroscopicity; settings: for GVS water absorbed: first scale up material; for Crystalline form by XRPD post GVS analysis: exposure to humidity 0 to about 90% RH, about 25° C.
Procedure: Sorption isotherms were obtained using a Hiden Isochema moisture sorption analyser (model IGAsorp), controlled by IGAsorp Systems Software v6.50.48. The sample was maintained at a constant temperature (25° C.) by the instrument controls. The humidity was controlled by mixing streams of dry and wet nitrogen, with a total flow of 250 mL·min^−1. The instrument was verified for relative humidity content by measuring three calibrated Rotronic salt solutions (10-50-88%). The weight change of the sample was monitored as a function of humidity by a microbalance (accuracy+/−0.005 mg). A defined amount of sample was placed in a tared mesh stainless steel basket under ambient conditions. A full experimental cycle consisted of two scans (sorption and desorption) at a constant temperature (25° C.) and 10% RH intervals over a 10-90% range (90 minutes for each humidity level).
The hygroscopicity of the esylate, mesylate, HCl, and sulfate salts/co-crystals of Compound I formed via the first scale up process was analyzed. All hygroscopicity experiments covered a wide range of humidity (0 to about 90% relative humidity) and were performed at about 25° C. to assess behavior.

[3] = XRPD form evaluation of materials recovered after solubility analysis; settings: aqueous solubility analysis, second scale up material
Procedure: as §1

[4] = Kinetic solubility in water; settings: 37° C., listed as Esylate Type A; for pH of supernatant: water (native pH 7.6)
Procedure: (§2) Kinetic solubility testing was conducted as follows: About 40-55 mg material was weighed into a 5-mL EP pipe. 4 mL of water/bio-relevant media (SGF, FaSSIF, or FeSSIF) was added into the corresponding sample pipe (drug loading: ˜10 mg/mL calculated as freebase). The pipes were capped tightly and the material was verified to be in contact with the media. The sample vials were placed on a roller and start rolling at 37° C. (rate: 25 r/min). Samples were taken at 1, 2, 4, 24 h. For each time point, 1.0 mL of suspension was transferred into a 2-mL centrifuge tube and the samples were centrifuged. The supernatant was filtered via 0.45 μm PTFE membrane and solubility and pH were measured. An XRPD test on residual solids was conducted.

[5] = Kinetic solubility in SGF
Procedure: as §2

[6] = Kinetic solubility in FaSSIF
Procedure: as §2

[7] = Kinetic solubility in FeSSIF
Procedure: as §2

[8] = Solubility of Compound I Form I in various solvents

SMILES: CCS(=O)(=O)N1CCN(c2ccc(Nc3ncc(C(N)=O)c(NC4CC4)n3)cc2)CC1 [Compound I sulfate Form II, 4-(cyclopropylamino)-2-(4-(4-(ethylsulfonyl)piperazin-1-yl)phenylamino)pyrimidine-5-carboxamide]
- solubility ([1]; listed as Comp. I Sulfate Similar to Form II): 7 µg/mL
- GVS water absorbed ([2]; 25° C., listed as Comp. I Sulfate Similar to Form II): About 0.5 mg
- GVS total weight loss ([2]; dried to 0% RH): about 5.9%
- Crystalline form by XRPD post GVS analysis ([2]; listed as crystalline Compound I sulfate sample): slightly increased the crystallinity
- Hygroscopicity (qualitative) ([2]; second scale up material): facile pick-up of surface moisture
- GVS gradual weight gain ([2]; up to about 80% RH): about 4.2%
- Form change on solubility analysis (XRPD post vs pre) ([3]; listed as Compound I sulfate prepared from water): no form change

SMILES: CCS(=O)(=O)N1CCN(c2ccc(Nc3ncc(C(N)=O)c(NC4CC4)n3)cc2)CC1 [Compound I mesylate Form II, 4-(cyclopropylamino)-2-(4-(4-(ethylsulfonyl)piperazin-1-yl)phenylamino)pyrimidine-5-carboxamide]
- GVS water absorbed ([2]; 25° C., listed as Comp. I Mesylate Form II): About 12 mg
- GVS total mass lost ([2]; desorption): about 2%
- Crystalline form by XRPD post GVS analysis [2]: does not result in a form change
- GVS total weight uptake from the starting point ([2]; sorption, increasing RH): ≤ 1.4%

SMILES: CCS(=O)(=O)N1CCN(c2ccc(Nc3ncc(C(N)=O)c(NC4CC4)n3)cc2)CC1 [Compound I esylate Form I, 4-(cyclopropylamino)-2-(4-(4-(ethylsulfonyl)piperazin-1-yl)phenylamino)pyrimidine-5-carboxamide]
- GVS hygroscopicity / moisture uptake ([2]; between 0 and about 60% RH, 25° C.): not subject to moisture uptake
- GVS weight uptake ([2]; between about 60% to about 90% RH): RH; about 5 mg
- GVS mass lost relative to the input weight ([2]; dried to about 10% RH): about 4.6%
- Crystalline form by XRPD post GVS analysis [2]: loss of crystallinity
- Deliquescence in GVS ([2]; large water uptake about 60 to about 90% RH): deliquescence did not result
- GVS weight change (sudden increase in weight) ([2]; sorption above about 60% RH): ~35%

SMILES: CCS(=O)(=O)N1CCN(c2ccc(Nc3ncc(C(N)=O)c(NC4CC4)n3)cc2)CC1 [Compound I esylate Type A, 4-(cyclopropylamino)-2-(4-(4-(ethylsulfonyl)piperazin-1-yl)phenylamino)pyrimidine-5-carboxamide]
- pH of supernatant ([4]; 1 h): 2.3
- pH of supernatant ([4]; 2 h): 2.0
- pH of supernatant ([4]; 4 h): 2.2
- pH of supernatant ([4]; 24 h): 2.1
- Final Form of residual solids (XRPD) ([4]; water, 1 h, 2 h, 4 h, 24 h): Freebase Form II
- Kinetic solubility ([4]; water, 1 h): 1700 µg/mL
- Kinetic solubility ([4]; water, 2 h): 1500 µg/mL
- Kinetic solubility ([4]; water, 4 h): 1400 µg/mL
- Kinetic solubility ([4]; water, 24 h): 1300 µg/mL
- Solubility (mg/mL) 1 h ([5]; SGF, 37° C., 1 h, drug loading ~10 mg/mL as freebase, listed as Esylate Type A): 0.092 mg/mL (≈ 206 µM)
- Solubility (mg/mL) 2 h ([5]; SGF, 37° C., 2 h, listed as Esylate Type A): 0.10 mg/mL (≈ 224 µM)
- Solubility (mg/mL) 4 h ([5]; SGF, 37° C., 4 h, listed as Esylate Type A): 0.087 mg/mL (≈ 195 µM)
- Solubility (mg/mL) 24 h ([5]; SGF, 37° C., 24 h, listed as Esylate Type A): 0.083 mg/mL (≈ 186 µM)
- Final Form ([5]; XRPD of residual solids, SGF, 1 h, 2 h, 4 h, 24 h): HC1 salt Form I
- pH 1 h ([5]; supernatant, SGF (native pH 1.8), 1 h, listed as Esylate Type A): 2.1
- pH 2 h ([5]; supernatant, SGF (native pH 1.8), 2 h, listed as Esylate Type A): 1.9
- pH 4 h ([5]; supernatant, SGF (native pH 1.8), 4 h, listed as Esylate Type A): 2.1
- pH 24 h ([5]; supernatant, SGF (native pH 1.8), 24 h, listed as Esylate Type A): 1.9
- Solubility (mg/mL) 1 h ([6]; FaSSIF, 37° C., 1 h, drug loading ~10 mg/mL as freebase, listed as Esylate Type A): 0.015 mg/mL (≈ 33.7 µM)
- Solubility (mg/mL) 2 h ([6]; FaSSIF, 37° C., 2 h, listed as Esylate Type A): 0.012 mg/mL (≈ 26.9 µM)
- Solubility (mg/mL) 4 h ([6]; FaSSIF, 37° C., 4 h, listed as Esylate Type A): 0.024 mg/mL (≈ 53.9 µM)
- Solubility (mg/mL) 24 h ([6]; FaSSIF, 37° C., 24 h, listed as Esylate Type A): 0.0040 mg/mL (≈ 8.98 µM)
- Final Form ([6]; XRPD of residual solids, FaSSIF, 1 h, 2 h, 4 h, 24 h): Freebase Form II
- pH 1 h ([6]; supernatant, FaSSIF (native pH 6.5), 1 h, listed as Esylate Type A): 5.2
- pH 2 h ([6]; supernatant, FaSSIF (native pH 6.5), 2 h, listed as Esylate Type A): 5.0
- pH 4 h ([6]; supernatant, FaSSIF (native pH 6.5), 4 h, listed as Esylate Type A): 4.3
- pH 24 h ([6]; supernatant, FaSSIF (native pH 6.5), 24 h, listed as Esylate Type A): 3.8
- Solubility (mg/mL) 1 h ([7]; 37° C., 1 h, drug loading ~10 mg/mL as freebase, listed as Esylate Type A): 0.060 mg/mL (≈ 135 µM)
- Solubility (mg/mL) 2 h ([7]; 37° C., 2 h, listed as Esylate Type A): 0.027 mg/mL (≈ 60.6 µM)
- Solubility (mg/mL) 4 h ([7]; 37° C., 4 h, listed as Esylate Type A): 0.014 mg/mL (≈ 31.4 µM)
- Solubility (mg/mL) 24 h ([7]; 37° C., 24 h, listed as Esylate Type A): 0.011 mg/mL (≈ 24.7 µM)
- Final Form 2 h, 4 h, 24 h ([7]; XRPD of residual solids, 2 h, 4 h, 24 h): Freebase Form II
- pH 1 h ([7]; supernatant, 1 h, listed as Esylate Type A): 4.8
- pH 2 h ([7]; supernatant, 2 h, listed as Esylate Type A): 4.7
- pH 4 h ([7]; supernatant, 4 h, listed as Esylate Type A): 4.7
- pH 24 h ([7]; supernatant, 24 h, listed as Esylate Type A): 4.4

SMILES: CCS(=O)(=O)N1CCN(c2ccc(Nc3ncc(C(N)=O)c(NC4CC4)n3)cc2)CC1 [Compound I Form I, 4-(cyclopropylamino)-2-(4-(4-(ethylsulfonyl)piperazin-1-yl)phenylamino)pyrimidine-5-carboxamide]
- Solubility of Compound I Form I (Observations) ([8]; 25 mg/1 mL Acetone): <5 mg
- Solubility of Compound I Form I (Observations) ([8]; 25 mg/1 mL Acetonitrile): <5 mg
- Solubility of Compound I Form I (Observations) ([8]; 25 mg/1 mL DCM): about 10 mg
- Solubility of Compound I Form I (Observations) ([8]; 25 mg/1 mL EtOAc): <5 mg
- Solubility of Compound I Form I (Observations) ([8]; 25 mg/1 mL Heptane): <5 mg
- Solubility of Compound I Form I (Observations) ([8]; 25 mg/1 mL IPA): <5 mg
- Solubility of Compound I Form I (Observations) ([8]; 25 mg/1 mL MeOH): <5 mg
- Solubility of Compound I Form I (Observations) ([8]; 25 mg/1 mL TBME): <5 mg
- Solubility of Compound I Form I (Observations) ([8]; 25 mg/1 mL THF): <5 mg
- Solubility of Compound I Form I (Observations) ([8]; 25 mg/1 mL Toluene): about 10 mg

SMILES: CCS(=O)(=O)N1CCN(c2ccc(Nc3ncc(C(N)=O)c(NC4CC4)n3)cc2)CC1 [Compound I sulfate Form I, 4-(cyclopropylamino)-2-(4-(4-(ethylsulfonyl)piperazin-1-yl)phenylamino)pyrimidine-5-carboxamide]
- solubility ([1]; listed as Comp. I Sulfate Similar to Form I): 10 µg/mL
- Form change on solubility analysis (XRPD post vs pre) ([3]; listed as Compound I sulfate prepared from IPA): form change to Compound I sulfate Form II
